This is an account of results in ChEMBL document CHEMBL1153781, “Prediction of volume of distribution values in human using immobilized artificial membrane partitioning coefficients, the fraction of compound ionized and plasma protein binding data” (Eur J Med Chem, 2009).

As usually defined, the Vd is a proportionality between amount in the body and measured concentration, not a real space. Lower therefore signals confinement near the circulation. Broadly, the pKa is the negative logarithm of the acid dissociation constant. High values mean a weaker acid or stronger base, low ones a stronger acid or weaker base.

The test system of one data set is Plasma.
Assay: not given
The following applies: human.
`CCCOC(C(=O)OC1CCN(C)CC1)(c1ccccc1)c1ccccc1` [PROPIVERINE] displayed a fu of 0.075.

For `NC(=O)N1c2ccccc2C=Cc2ccccc21` [CARBAMAZEPINE], the fu was 0.25.

For the compound `Cn1c(=O)c2c(ncn2CC(O)CO)n(C)c1=O` (centres undefined) [DYPHYLLINE], the fu is given as 0.6.

In the case of `CCCCN1CCCCC1C(=O)Nc1c(C)cccc1C` (centres undefined) [BUPIVACAINE], the fu was 0.044.

`Nc1ncnc2c1ncn2CCOCP(=O)(O)O` [ADEFOVIR] came in with a fu of 0.895.

Consider `COc1ccc2c(c1)C(=O)N(CCc1ccc(S(=O)(=O)NC(=O)NC3CCCCC3)cc1)C(=O)C2(C)C` [GLIQUIDONE], for which the fu was 0.01.

For `COC(=O)C1=C(C)NC(C)=C(C(=O)OCCN(C)Cc2ccccc2)C1c1cccc([N+](=O)[O-])c1` (centres undefined) [NICARDIPINE], the fu is reported as 0.05.

`C[C@H]1COc2c(N3CCN(C)CC3)c(F)cc3c(=O)c(C(=O)O)cn1c23.C[C@H]1COc2c(N3CCN(C)CC3)c(F)cc3c(=O)c(C(=O)O)cn1c23.O` [LEVOFLOXACIN] registered a fu of 0.69.

For `CCn1cc(C(=O)O)c(=O)c2cc(F)c(N3CCNC(C)C3)c(F)c21` (centres undefined) [LOMEFLOXACIN], the fu is listed as 0.89.

Take `NS(=O)(=O)c1cc2c(cc1Cl)NCNS2(=O)=O` [HYDROCHLOROTHIAZIDE]: the fu was found to be 0.6.

Take `CCn1cc(C(=O)O)c(=O)c2cc(F)c(N3CCNCC3)cc21` [NORFLOXACIN]: the fu was 0.85.

On to `Cc1c(OCC(F)(F)F)ccnc1C[S+]([O-])c1nc2ccccc2[nH]1` (centres undefined) [LANSOPRAZOLE], for which the fu is 0.03.

Compound `CC1(C)S[C@@H]2[C@H](NC(=O)[C@H](N)c3ccc(O)cc3)C(=O)N2[C@H]1C(=O)O` [AMOXICILLIN] returned a fu of 0.82.

As for `CCN1CCCC1CNC(=O)c1cc(S(N)(=O)=O)ccc1OC` (centres undefined) [SULPIRIDE], the fu was 0.6.

Regarding `C=CC1=C(C(=O)O)N2C(=O)[C@@H](NC(=O)/C(=N\OCC(=O)O)c3csc(N)n3)[C@H]2SC1` [CEFIXIME], the fu was determined as 0.33.

For `O=C1NC(=O)C(c2ccccc2)(c2ccccc2)N1` [PHENYTOIN], the fu is 0.1.

As for `NNC(=O)c1ccncc1` [ISONIAZID], the fu is 1.

Compound `COC(=O)CCc1ccc(OCC(O)CNC(C)C)cc1` (centres undefined) [ESMOLOL] yielded a fu of 0.45.

`CC(=O)CC(c1ccccc1)c1c(O)c2ccccc2oc1=O` (centres undefined) [WARFARIN] came in with a fu of 0.01.

`CCCN1CCCC[C@H]1C(=O)Nc1c(C)cccc1C` [ROPIVACAINE] came in with a fu of 0.06.

For `CN[C@@H](C)[C@@H](O)c1ccccc1` [PSEUDOEPHEDRINE], the fu was determined as 1.

The compound `CCC[C@@H]1C[C@@H](C(=O)N[C@@H]([C@H]2O[C@H](SC)[C@H](O)[C@@H](O)[C@H]2O)[C@@H](C)O)N(C)C1` [LINCOMYCIN] came in with a fu of 0.28.

As to `CCOC(=O)[C@H](CCc1ccccc1)N[C@@H](C)C(=O)N1CCC[C@H]1C(=O)O`, the fu was determined as 0.4.

As to `COc1ccc2c(c1)c(CC(=O)O)c(C)n2C(=O)c1ccc(Cl)cc1` [INDOMETHACIN], the fu turned out to be 0.1.

Regarding `COc1cccc(C2(O)CCCCC2CN(C)C)c1` (centres undefined) [TRAMADOL], the fu amounted to 0.96.

Turning to `COCCOC(=O)C1=C(C)NC(C)=C(C(=O)OC(C)C)C1c1cccc([N+](=O)[O-])c1` (centres undefined) [NIMODIPINE], the fu was 0.05.

Consider `CCCC(C)C1(CC)C(=O)NC(=O)NC1=O` (centres undefined) [PENTOBARBITAL], for which the fu stood at 0.45.

On to `CCC1(c2ccccc2)C(=O)NC(=O)NC1=O` [PHENOBARBITAL], for which the fu is 0.5.

Test system in another data set: not listed separately
Put plainly: clinical. Particulars: human, in vivo.
With `CCCOC(C(=O)OC1CCN(C)CC1)(c1ccccc1)c1ccccc1` [PROPIVERINE], the Vd amounted to 1.9 L/kg.

In turn, `NC(=O)N1c2ccccc2C=Cc2ccccc21` [CARBAMAZEPINE] gave a Vd of 1.4 L/kg.

Turning to `Cn1c(=O)c2c(ncn2CC(O)CO)n(C)c1=O` (centres undefined) [DYPHYLLINE], the Vd was 0.8 L/kg.

For `CCCCN1CCCCC1C(=O)Nc1c(C)cccc1C` (centres undefined) [BUPIVACAINE], the Vd amounted to 0.7 L/kg.

`COc1ccc2c(c1)C(=O)N(CCc1ccc(S(=O)(=O)NC(=O)NC3CCCCC3)cc1)C(=O)C2(C)C` [GLIQUIDONE] yielded a Vd of 0.16 L/kg.

`COC(=O)C1=C(C)NC(C)=C(C(=O)OCCN(C)Cc2ccccc2)C1c1cccc([N+](=O)[O-])c1` (centres undefined) [NICARDIPINE] had a Vd of 0.98 L/kg.

In turn, `C[C@H]1COc2c(N3CCN(C)CC3)c(F)cc3c(=O)c(C(=O)O)cn1c23.C[C@H]1COc2c(N3CCN(C)CC3)c(F)cc3c(=O)c(C(=O)O)cn1c23.O` [LEVOFLOXACIN] gave a Vd of 1.36 L/kg.

Regarding `CCn1cc(C(=O)O)c(=O)c2cc(F)c(N3CCNC(C)C3)c(F)c21` (centres undefined) [LOMEFLOXACIN], the distribution volume (Vd) worked out at 2.3 L/kg.

Consider `NS(=O)(=O)c1cc2c(cc1Cl)NCNS2(=O)=O` [HYDROCHLOROTHIAZIDE], for which the Vd was determined as 0.83 L/kg.

On to `CCn1cc(C(=O)O)c(=O)c2cc(F)c(N3CCNCC3)cc21` [NORFLOXACIN], for which the Vd came out at 2.8 L/kg.

With `Cc1c(OCC(F)(F)F)ccnc1C[S+]([O-])c1nc2ccccc2[nH]1` (centres undefined) [LANSOPRAZOLE], the Vd turned out to be 0.35 L/kg.

Turning to `CC1(C)S[C@@H]2[C@H](NC(=O)[C@H](N)c3ccc(O)cc3)C(=O)N2[C@H]1C(=O)O` [AMOXICILLIN], the Vd came to 0.85 L/kg. Against the preceding compound, the Vd is about 2.4-fold higher.

Turning to `CCN1CCCC1CNC(=O)c1cc(S(N)(=O)=O)ccc1OC` (centres undefined) [SULPIRIDE], the Vd turned out to be 2.5 L/kg.

In turn, `O=C1NC(=O)C(c2ccccc2)(c2ccccc2)N1` [PHENYTOIN] had a Vd of 0.64 L/kg.

Compound `NNC(=O)c1ccncc1` [ISONIAZID] came in with a Vd of 0.67 L/kg.

The compound `COC(=O)CCc1ccc(OCC(O)CNC(C)C)cc1` (centres undefined) [ESMOLOL] showed a Vd of 1.9 L/kg.

The compound `CC(=O)CC(c1ccccc1)c1c(O)c2ccccc2oc1=O` (centres undefined) [WARFARIN] had a Vd of 0.14 L/kg.

Compound `CCCN1CCCC[C@H]1C(=O)Nc1c(C)cccc1C` [ROPIVACAINE] showed a Vd of 0.55 L/kg. This Vd is about 3.9-fold higher than that of the compound before.

With `CN[C@@H](C)[C@@H](O)c1ccccc1` [PSEUDOEPHEDRINE], the Vd came to 2.84 L/kg.

As for `CCC[C@@H]1C[C@@H](C(=O)N[C@@H]([C@H]2O[C@H](SC)[C@H](O)[C@@H](O)[C@H]2O)[C@@H](C)O)N(C)C1` [LINCOMYCIN], the Vd came out at 1.3 L/kg.

For the compound `CCOC(=O)[C@H](CCc1ccccc1)N[C@@H](C)C(=O)N1CCC[C@H]1C(=O)O`, the Vd came out at 1.7 L/kg. The Vd values of the last two compounds are within 1.5-fold of each other.

Compound `COc1ccc2c(c1)c(CC(=O)O)c(C)n2C(=O)c1ccc(Cl)cc1` [INDOMETHACIN] registered a distribution volume (Vd) of 0.1 L/kg. Compared with the last compound, the Vd is about 17-fold lower.

As to `COCCOC(=O)C1=C(C)NC(C)=C(C(=O)OC(C)C)C1c1cccc([N+](=O)[O-])c1` (centres undefined) [NIMODIPINE], the Vd is 1.5 L/kg.

On to `CCCC(C)C1(CC)C(=O)NC(=O)NC1=O` (centres undefined) [PENTOBARBITAL], for which the Vd was 1 L/kg.

Take `CCC1(c2ccccc2)C(=O)NC(=O)NC1=O` [PHENOBARBITAL]: the Vd worked out at 0.63 L/kg.

Test system in a further data set: not listed separately
Put plainly: Dissociation constant, pKa of the compound. The format is physicochemical.
Conditions: not given
As to `CCCOC(C(=O)OC1CCN(C)CC1)(c1ccccc1)c1ccccc1` [PROPIVERINE], the pKa was 6.65.

On to `CCCCN1CCCCC1C(=O)Nc1c(C)cccc1C` (centres undefined) [BUPIVACAINE], for which the pKa came to 8.16.

Consider `Nc1ncnc2c1ncn2CCOCP(=O)(O)O` [ADEFOVIR], for which the pKa was 1.3.

Take `COc1ccc2c(c1)C(=O)N(CCc1ccc(S(=O)(=O)NC(=O)NC3CCCCC3)cc1)C(=O)C2(C)C` [GLIQUIDONE]: the pKa is 5.

`CCn1cc(C(=O)O)c(=O)c2cc(F)c(N3CCNC(C)C3)c(F)c21` (centres undefined) [LOMEFLOXACIN] showed a pKa of 5.99.

Compound `CCn1cc(C(=O)O)c(=O)c2cc(F)c(N3CCNCC3)cc21` [NORFLOXACIN] had a pKa of 6.3.

As to `CC1(C)S[C@@H]2[C@H](NC(=O)[C@H](N)c3ccc(O)cc3)C(=O)N2[C@H]1C(=O)O` [AMOXICILLIN], the pKa is 2.4.

`C=CC1=C(C(=O)O)N2C(=O)[C@@H](NC(=O)/C(=N\OCC(=O)O)c3csc(N)n3)[C@H]2SC1` [CEFIXIME]: the pKa stood at 2.1.

On to `COC(=O)CCc1ccc(OCC(O)CNC(C)C)cc1` (centres undefined) [ESMOLOL], for which the pKa stood at […].

Take `COc1cccc(C2(O)CCCCC2CN(C)C)c1` (centres undefined) [TRAMADOL]: the pKa was 8.3.

`CCCC(C)C1(CC)C(=O)NC(=O)NC1=O` (centres undefined) [PENTOBARBITAL] displayed a pKa of 8.1.
